Measurements taken from BindingDB's records for doi:10.3109/14756366.2011.650691 (University Roma Tre, 2013).

Molecular target: Spermine oxidase (Homo sapiens, UniProt Q9NWM0)
Assay: Enzyme Inhibition Assay
Conditions: pH 8.3; 25 °C
Experimental: SMO activity was assayed at pH 8.3 (0.1 M Tris-HCl buffer) and 25°C using Spm as the substrate in the presence and absence of CHX.

Chain of Spermine oxidase (Q9NWM0 whole entry): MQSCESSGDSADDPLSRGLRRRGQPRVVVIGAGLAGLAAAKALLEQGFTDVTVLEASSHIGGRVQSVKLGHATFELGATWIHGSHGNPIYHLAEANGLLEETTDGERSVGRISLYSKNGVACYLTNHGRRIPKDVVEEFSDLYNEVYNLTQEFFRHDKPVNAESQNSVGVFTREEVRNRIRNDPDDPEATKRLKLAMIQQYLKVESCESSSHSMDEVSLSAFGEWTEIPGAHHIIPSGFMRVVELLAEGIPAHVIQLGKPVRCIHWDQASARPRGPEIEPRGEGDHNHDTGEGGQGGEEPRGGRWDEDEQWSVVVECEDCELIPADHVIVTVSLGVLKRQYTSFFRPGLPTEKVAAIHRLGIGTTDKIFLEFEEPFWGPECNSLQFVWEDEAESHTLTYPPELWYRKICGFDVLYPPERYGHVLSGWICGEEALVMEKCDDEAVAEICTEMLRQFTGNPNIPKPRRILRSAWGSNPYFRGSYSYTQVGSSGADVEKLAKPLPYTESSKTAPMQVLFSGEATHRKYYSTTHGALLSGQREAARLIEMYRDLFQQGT

Ki: 0.55 µM
Compound: [H]/N=C(\N/C(=N/[H])NCCCCCCNC(=N)NC(=N)Nc1ccc(Cl)cc1)Nc1ccc(Cl)cc1 [Chlorhexidine (1)]
